# Source: EPA's ToxRefDB 2
# Experiments:
# [1] = system: rat; details: Chronic toxicity, sprague dawley, Oral, Feed, dose end: 2 year, group: systemic
# [2] = system: rat; details: Prenatal developmental toxicity study, wistar, Oral, Feed, dose end: 21 GD
# [3] = system: rat; details: Prenatal developmental toxicity study, wistar, Oral, Gavage/Intubation, dose end: 20 GD
# [4] = system: rabbit; details: Prenatal developmental toxicity study, himalayan, Oral, Gavage/Intubation, dose end: 18 GD
# [5] = system: rat; details: Prenatal developmental toxicity study; wistar; Dermal; Topical; dose end: 15 GD; group: developmental; developmental / developmental malformation / bone / supernumerary
# [6] = system: rat; details: Multigenerational reproductive toxicity study, wistar, Oral, Gavage/Intubation, dose end: 2 generation
# [7] = system: rat; details: Prenatal developmental toxicity study, wistar, Oral, Gavage/Intubation, dose end: 19 GD
# [8] = system: rat; details: Prenatal developmental toxicity study, wistar, Oral, Gavage/Intubation, dose end: 20 GD; remark: listed apart in the source
# [9] = system: rat; details: Developmental neurotoxicity study; sprague dawley; Oral; Gavage/Intubation; dose end: 42 PND; group: cannot be grouped; developmental / offspring survival late / [other] / [other]
# [10] = systemic / pathology microscopic / pituitary gland / adenoma/carcinoma combined + systemic / in life observation / body weight / body weight…
# [11] = group: developmental, systemic / in life observation / body weight / fetal weight
# [12] = group: maternal, reproductive / reproductive performance / postimplantation loss / postimplantation loss + reproductive / reproductive performance / …
# [13] = group: developmental, developmental / developmental malformation / great vessels / [other] + developmental / developmental malformation / bone / fused + …
# [14] = group: maternal, reproductive / offspring survival early / litter viability other / total litter loss + systemic / in life observation / body weight / body …
# [15] = group: developmental, developmental / developmental malformation / bone / arthrogryposis + developmental / developmental malformation / bone / malformation, total
# [16] = group: maternal, reproductive / reproductive performance / resorptions / resorptions + systemic / in life observation / body weight / body weight gain + …
# [17] = group: offspring, systemic / in life observation / body weight / offspring (pup) weight + systemic / organ weight / spleen / absolute + systemic / organ …
# [18] = group: parental, systemic / organ weight / liver / absolute + systemic / organ weight / thymus / absolute + systemic / organ weight / thymus / relative to …
# [19] = group: reproductive, reproductive / reproductive performance / estrous cycle / length + reproductive / reproductive performance / estrous cycle / periodicity + …
# [20] = group: developmental, developmental / developmental malformation / bone / delayed ossification + developmental / developmental malformation / bone / supernumerary…
# [21] = group: maternal, systemic / in life observation / body weight / body weight gain + systemic / in life observation / food consumption / food consumption
# [22] = group: maternal, systemic / in life observation / body weight / body weight gain + systemic / in life observation / food consumption / food consumption + …
# [23] = group: developmental, developmental / developmental malformation / bone / supernumerary
# [24] = group: maternal, systemic / in life observation / clinical signs / abnormal respiratory sounds + systemic / in life observation / clinical signs / altered …
smiles,measurement,setting,value
O=c1c(-c2ccc(O)cc2)coc2cc(O)cc(O)c12 [Genistein],NEL,[1]; systemic / organ weight / pituitary gland / absolute + systemic / organ weight / pituitary gland / relative to body weight,0.25 mg/kg/day
same,LEL,[1]; systemic / organ weight / pituitary gland / absolute + systemic / organ weight / pituitary gland / relative to body weight + systemic / …,5 mg/kg/day
same,LOAEL,[1]; [10],> 25 mg/kg/day
same,NOAEL,[1]; [10],≥ 25 mg/kg/day
same,LEL,[2]; [11],500 mg/kg/day
same,LOAEL,[2]; [11],> 500 mg/kg/day
same,NEL,[2]; [11],100 mg/kg/day
same,NOAEL,[2]; [11],≥ 500 mg/kg/day
same,LEL,[2]; [12],500 mg/kg/day
same,LOAEL,[2]; [12],> 500 mg/kg/day
same,NEL,[2]; [12],100 mg/kg/day
same,NOAEL,[2]; [12],≥ 500 mg/kg/day
same,LEL,"[3]; group: developmental, developmental / developmental malformation / great vessels / [other]",150 mg/kg/day
same,LOAEL,[3]; [13],> 1000 mg/kg/day
same,NEL,[3]; [13],20 mg/kg/day
same,NOAEL,[3]; [13],≥ 1000 mg/kg/day
same,LEL,[3]; [14],1000 mg/kg/day
same,LOAEL,[3]; [14],> 1000 mg/kg/day
same,NEL,[3]; [14],150 mg/kg/day
same,NOAEL,[3]; [14],≥ 1000 mg/kg/day
OC(Cc1ccccc1Cl)(Cn1[nH]cnc1=S)C1(Cl)CC1 (centres undefined) [Prothioconazole],LEL,[4]; [15],10 mg/kg/day
same,LOAEL,[4]; [15],10 mg/kg/day
same,NEL,[4]; [15],2 mg/kg/day
same,NOAEL,[4]; [15],2 mg/kg/day
same,LEL,[4]; [16],50 mg/kg/day
same,LOAEL,[4]; [16],50 mg/kg/day
same,NEL,[4]; [16],10 mg/kg/day
same,NOAEL,[4]; [16],10 mg/kg/day
same,LEL,[5],100 mg/kg/day
same,LOAEL,[5],100 mg/kg/day
same,NEL,[5],< 100 mg/kg/day
same,NOAEL,[5],< 100 mg/kg/day
same,LEL,[6]; [17],750 mg/kg/day
same,LOAEL,[6]; [17],750 mg/kg/day
same,NEL,[6]; [17],100 mg/kg/day
same,NOAEL,[6]; [17],100 mg/kg/day
same,LOAEL,[6]; [18],750 mg/kg/day
same,NEL,[6]; [18],10 mg/kg/day
same,NOAEL,[6]; [18],100 mg/kg/day
same,LEL,"[6]; group: parental, systemic / organ weight / thymus / absolute + systemic / organ weight / thymus / relative to body weight + systemic / organ weight / seminal…",100 mg/kg/day
same,LEL,[6]; [19],750 mg/kg/day
same,LOAEL,[6]; [19],750 mg/kg/day
same,NEL,[6]; [19],100 mg/kg/day
same,NOAEL,[6]; [19],100 mg/kg/day
same,LEL,[7]; [20],1000 mg/kg/day
same,LOAEL,[7]; [20],> 1000 mg/kg/day
same,NEL,[7]; [20],200 mg/kg/day
same,NOAEL,[7]; [20],≥ 1000 mg/kg/day
same,LEL,[7]; [21],200 mg/kg/day
same,LOAEL,[7]; [21],200 mg/kg/day
same,NEL,[7]; [22],40 mg/kg/day
same,NOAEL,[7]; [22],40 mg/kg/day
same,LEL,[8]; [23],30 mg/kg/day
same,LOAEL,[8]; [23],30 mg/kg/day
same,NEL,[8]; [23],< 30 mg/kg/day
same,NOAEL,[8]; [23],< 30 mg/kg/day
same,LEL,[8]; [24],750 mg/kg/day
same,LOAEL,[8]; [24],750 mg/kg/day
same,NEL,[8]; [24],150 mg/kg/day
same,NOAEL,[8]; [24],150 mg/kg/day
O=C([O-])c1ccccc1O.[Na+] [Sodium salicylate],LEL,[9],12.5 mg/kg/day
same,LOAEL,[9],> 150 mg/kg/day
same,NEL,[9],4.2 mg/kg/day
same,NOAEL,[9],≥ 150 mg/kg/day
